Source: the supplement of paper PMC10331698
± gives the standard deviation of the averaged measurements.

Key:
Assay in all cases: level (log10 ratio to DMSO vehicle control); higher = higher biomarker level / cell amount than vehicle control
Settings in all cases: in DMSO
[1] = compound: CC(C)(C)C(=O)CC(=O)C(F)(F)C(F)(F)C(F)(F)F [(Heptafluorobutanoyl)pivaloylmethane]
Description: (§1)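 BioMAP Diversity Plus panel of 12 human primary cell co-culture systems (3C, 4H, LPS, SAg, BT, BF4T, BE3C, CASM3C, HDF3CGF, KF3CT, MyoF, Mphg). Compounds were added 1 h before stimulation and left for 24 h (MyoF 48 h; BT 72 h for soluble read-outs or 6 d for IgG). Biomarkers were read by ELISA, cytotoxicity by SRB, PBMC viability and proliferation by Alamar Blue. Each well value was divided by the mean of 8 DMSO control wells on the same plate and log10 transformed; duplicate blinded samples were tested at 4 concentrations.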

1-(Perfluorohexyl)octane = compound: CCCCCCCCC(F)(F)C(F)(F)C(F)(F)C(F)(F)C(F)(F)C(F)(F)F [1-(Perfluorohexyl)octane]
Description: as §1

[2] = compound: FC(F)(F)C(F)(F)C(F)(F)C(F)(F)C(F)(F)C(F)(F)C(F)(F)CCI [1-Iodo-1H,1H,2H,2H-perfluorononane]
Description: as §1

Perfluorooctanamidine = compound: N=C(N)C(F)(F)C(F)(F)C(F)(F)C(F)(F)C(F)(F)C(F)(F)C(F)(F)F [Perfluorooctanamidine]
Description: as §1

Perfluorooctanamide = compound: NC(=O)C(F)(F)C(F)(F)C(F)(F)C(F)(F)C(F)(F)C(F)(F)C(F)(F)F [Perfluorooctanamide]
Description: as §1

[3] = compound: O=P(O)(O)CCC(F)(F)C(F)(F)C(F)(F)C(F)(F)C(F)(F)C(F)(F)C(F)(F)C(F)(F)F [((Perfluorooctyl)ethyl)phosphonic acid]
Description: as §1

[4] = compound: O=S(=O)(O)C(F)(F)C(F)(F)C(F)(F)C(F)(F)F [Perfluorobutanesulfonic acid]
Description: as §1

Test System	level (log10) ([1]; 6700 nM)	level (log10) ([1]; 20000 nM)	level (log10) ([1]; 60000 nM)	level (log10) (1-(Perfluorohexyl)octane; 6700 nM)	level (log10) (1-(Perfluorohexyl)octane; 20000 nM)	level (log10) ([2]; 6700 nM)	level (log10) ([2]; 20000 nM)	level (log10) (Perfluorooctanamidine; 6700 nM)	level (log10) (Perfluorooctanamidine; 20000 nM)	level (log10) (Perfluorooctanamidine; 60000 nM)	level (log10) (Perfluorooctanamide; 6700 nM)	level (log10) (Perfluorooctanamide; 20000 nM)	level (log10) (Perfluorooctanamide; 60000 nM)	level (log10) ([3]; 6700 nM)	level (log10) ([3]; 20000 nM)	level (log10) ([3]; 60000 nM)	level (log10) ([4]; 6700 nM)	level (log10) ([4]; 20000 nM)	level (log10) ([4]; 60000 nM)
HDF3CGF:CD106/VCAM-1	0.0085 ± 0.023	0.032 ± 0.0071	-0.0925 ± 0.054	-0.004 ± 0.016	-0.0265 ± 0.0064	-0.0925 ± 0.013	-0.115 ± 0.018	-0.0215 ± 0.013	-0.132 ± 0.018	-0.214	-0.015 ± 0.0099	0.0005 ± 0.005	-0.016 ± 0.0085	0.098 ± 0.0028	-0.006 ± 0.0085	-0.145 ± 0.012	-0.02 ± 0.013	-0.01 ± 0.0014	-0.025 ± 0.058
HDF3CGF:CXCL8/IL-8	0.0025 ± 0.0035	-0.001 ± 0.0099	-0.0005 ± 0.0035	0.0065 ± 0.0064	0.008 ± 0.0057	0.002 ± 0.0014	0.0165 ± 0.019	0.006 ± 0.0014	0.0135 ± 0.005	0.007	-0.0075 ± 0.0021	-0.0055 ± 0.012	-0.005 ± 0.0014	-0.0065 ± 0.022	-0.005 ± 0.0057	-0.0485 ± 0.011	0.0025 ± 0.0078	-0.002 ± 0.0057	-0.0025 ± 0.0021
HDF3CGF:CXCL9/MIG	0.0025 ± 0.012	0 ± 0.02	-0.025 ± 0.033	0.0055 ± 0.00071	0.025 ± 0.014	-0.035 ± 0.0071	-0.0875 ± 0.049	0.0055 ± 0.023	-0.003 ± 0.018	0.018	-0.014 ± 0.013	0.0115 ± 0.012	0.0415 ± 0.0078	0.102 ± 0.017	0.0505 ± 0.018	-0.0155 ± 0.061	-0.01 ± 0.0085	-0.0145 ± 0.0092	-0.0035 ± 0.005
HDF3CGF:CXCL10/IP-10	-0.0195 ± 0.0078	-0.0105 ± 0.012	-0.076 ± 0.023	-0.02 ± 0.041	-0.03 ± 0.055	-0.0265 ± 0.0035	-0.0645 ± 0.03	0.024 ± 0.014	-0.004 ± 0.034	-0.122	-0.0165 ± 0.019	0.003 ± 0.0014	0.0305 ± 0.011	0.077 ± 0.0014	0.0255 ± 0.005	-0.0375 ± 0.005	-0.0075 ± 0.0078	-0.0105 ± 0.005	-0.0195 ± 0.0021
HDF3CGF:CXCL11/I-TAC	0.012 ± 0.014	-0.0155 ± 0.005	-0.06 ± 0.013	-0.0255 ± 0.023	-0.0365 ± 0.057	-0.0295 ± 0.005	-0.094 ± 0.018	0.024 ± 0.025	0.0285 ± 0.029	-0.119	-0.006 ± 0.0099	-0.0185 ± 0.016	-0.016 ± 0.0057	0.084 ± 0.0014	0.064 ± 0.018	-0.0155 ± 0.035	-0.0235 ± 0.00071	0.005 ± 0.0028	-0.005 ± 0.0014
HDF3CGF:Collagen I	-0.0025 ± 0.029	-0.044 ± 0.04	0.0405 ± 0.044	0.006 ± 0.0085	-0.01 ± 0.1	0.0105 ± 0.042	-0.011 ± 0.058	-0.015 ± 0.0085	-0.025 ± 0.03	-0.021	-0.0135 ± 0.043	-0.0555 ± 0.013	0.0095 ± 0.081	-0.041	-0.116 ± 0.015	-0.148 ± 0.1	0.0175 ± 0.037	-0.003 ± 0.025	0.0345 ± 0.043
HDF3CGF:Collagen III	-0.008 ± 0.11	0.0535 ± 0.025	0.0555 ± 0.018	-0.029 ± 0.042	-0.0315 ± 0.042	-0.063 ± 0.023	-0.138 ± 0.028	-0.047 ± 0.018	-0.196 ± 0.045	-0.172	-0.018 ± 0.014	-0.02 ± 0.0014	-0.0085 ± 0.056	-0.119 ± 0.011	-0.193	-0.281 ± 0.029	-0.013 ± 0.048	0.035 ± 0.016	0.047 ± 0.016
HDF3CGF:EGFR	0.027 ± 0.016	-0.102 ± 0.031	0.009 ± 0.055	-0.007 ± 0.0028	0.0125 ± 0.005	0.016	0.0295 ± 0.023	-0.017 ± 0.02	0.01 ± 0.011	-0.013	0.008 ± 0.013	0.0125 ± 0.015	0.0375 ± 0.042	-0.0125 ± 0.016	-0.045 ± 0.024	-0.126 ± 0.059	0.0105 ± 0.005	-0.032 ± 0.048	-0.0205 ± 0.032
HDF3CGF:M-CSF	0.026 ± 0.014	0.03 ± 0.038	0 ± 0.028	-0.022 ± 0.031	-0.0025 ± 0.021	-0.0895 ± 0.049	-0.12 ± 0.064	-0.017 ± 0.014	-0.0485 ± 0.018	-0.177	0.001 ± 0.023	0.0055 ± 0.00071	0.027 ± 0.0014	0.0235 ± 0.016	-0.009 ± 0.0028	-0.113 ± 0.016	0.011 ± 0.0085	0.0045 ± 0.0035	0.0025 ± 0.005
HDF3CGF:MMP-1	0.006 ± 0.0071	-0.002 ± 0.0014	0.01 ± 0.024	-0.0395 ± 0.012	-0.014 ± 0.023	0.011 ± 0.017	0.061 ± 0.04	-0.008 ± 0.0099	0.012 ± 0.0085	-0.008	0.0175 ± 0.00071	0.003 ± 0.0071	-0.0025 ± 0.028	-0.019 ± 0.011	-0.021 ± 0.0057	-0.05 ± 0.0042	0.0085 ± 0.011	0.002 ± 0.013	-0.0165 ± 0.036
HDF3CGF:PAI-I	0.011 ± 0.016	0.0255 ± 0.00071	0.0685 ± 0.049	0.0005 ± 0.016	0.0165 ± 0.0021	0.0075 ± 0.023	-0.0095 ± 0.032	-0.0225 ± 0.013	0.02 ± 0.014	-0.233	-0.016 ± 0.013	-0.03 ± 0.0099	-0.0235 ± 0.0078	-0.028 ± 0.035	-0.101 ± 0.06	-0.2695 ± 0.0021	-0.017 ± 0.034	0.007 ± 0.045	-0.0075 ± 0.03
HDF3CGF:Proliferation 72hr	-0.0465 ± 0.028	0.097 ± 0.031	0.094 ± 0.014	0.0085 ± 0.077	0.0325 ± 0.005	-0.689 ± 0.0092	-0.815 ± 0.25	-0.0255 ± 0.043	-0.0515 ± 0.1	-0.564	0.0335 ± 0.049	0.004 ± 0.023	-0.0165 ± 0.022	0.017 ± 0.065	-0.0105 ± 0.087	-0.374 ± 0.034	-0.0045 ± 0.013	-0.0195 ± 0.015	0.0155 ± 0.05
HDF3CGF:SRB	0.0015 ± 0.0021	0.0085 ± 0.013	0.0345 ± 0.032	0.0105 ± 0.11	0.022 ± 0.057	0.016 ± 0.045	-0.052 ± 0.071	-0.01 ± 0.017	0.0155 ± 0.0035	-0.048	0.01 ± 0.028	-0.0025 ± 0.033	0.0285 ± 0.019	0.0285 ± 0.021	-0.0095 ± 0.033	-0.011 ± 0.033	0.018 ± 0.03	0.023 ± 0.013	0.004 ± 0.033
HDF3CGF:TIMP-1	-0.011 ± 0.03	-0.0005 ± 0.005	0.0085 ± 0.018	0.0105 ± 0.039	-0.0185 ± 0.03	-0.0035 ± 0.0035	0.047 ± 0.0085	0.013 ± 0.042	0.018 ± 0.05	0.092	-0.0405 ± 0.049	-0.022 ± 0.02	-0.0575 ± 0.0035	-0.03 ± 0.0057	-0.06 ± 0.018	-0.0575 ± 0.044	-0.032 ± 0.064	0.0125 ± 0.0078	0.0195 ± 0.011
HDF3CGF:TIMP-2	-0.0005 ± 0.019	-0.006 ± 0.013	-0.019 ± 0.016	-0.005 ± 0.067	-0.0035 ± 0.052	0.0165 ± 0.011	0.0055 ± 0.0064	-0.008 ± 0.027	-0.012 ± 0.031	-0.018	-0.0085 ± 0.005	-0.035 ± 0.011	-0.0145 ± 0.022	0.0645 ± 0.013	0.0485 ± 0.0021	-0.029 ± 0.018	0.0135 ± 0.037	0.017 ± 0.023	0.031 ± 0.014
